“Also recorded” adds a separate entry of the source.
How the values were obtained:
S. aureus = assay: Multi-challenge method, S. aureus decay (non-linear regression analysis); type: cell-based
Experimental: (§1) To represent the worst reasonable case of contamination that may occur in practice during the repeated use of a multi-dose presentation, WHO requires safety testing with deliberate exposure to multiple contamination events using bacterial strains, Pseudomonas Aeruginosa (“PA”), Staphylococcus Aureus (“SA”), Escherichia coli (“EC”) and Bacillus subtilis (“BA”). Formulations are spiked with 5×10^3 CFU/ml of each organism at times 0, 6 hours, 24 hours, 7 days and 14 days after initial challenge and stored either at 2-8° C. or at 22-24° C. to mimic the potential storage conditions in practice.
(§2) To assess the appropriateness of WHO multi-dose Open Vial Policy of vaccines in multiple immunization sessions for up to maximum of four weeks, experimental design provided by WHO was implemented. In this study, the effectiveness of Thimerosal was evaluated at the concentration that is present in the majority of U.S. licensed vaccines (0.01%), as well as at a higher concentration of 0.02%. To represent the worst reasonable case of contamination that may occur in practice during the repeated use of a multi-dose presentation, and to test WHO requirements, Prev(e)nar 13 vaccine formulations with 0.01 or 0.02% Thimerosal or with 5.0 mg/dose of 2-PE were deliberately exposed to multiple contamination events using WHO recommended bacterial strains, P. aeruginosa, S. aureus, E. coli and B. subtilis. Formulations were spiked with 5×10^3 CFU/ml of each organism at times 0, 6 hours, 24 hours, 7 days and 14 days after initial challenge and stored either at 2-8° C. or at 22-24° C. to mimic the potential storage conditions in practice. Saline formulation containing 0.02% Thimerosal was also used as a control to evaluate the potential impact of Prev(e)nar 13 on the antimicrobial efficacy of Thimerosal in the formulation.
As shown in the non-linear regression analysis of decay in the viability of S. aureus is summarized in FIG. 12, the rate of decay of S. aureus was substantially slower ([…], with 50% decay in 30.28 days) when formulation was stored at 2-8° C. compared to that stored at 22-24° C. (−1.39 log10 decay per day, with 50% decay in 6.2 days) (FIG. 12).

[1] = system: Aspergillus niger (ATCC #16404); assay: Preservative effectiveness test, single challenge; type: cell-based
Description: (§3) To test for preservative effectiveness, aliquots of vaccine were inoculated with the following organisms:
(§4) Thirty milliliters (ml) of each vaccine formulation with and without Thimerosal or 2-PE at indicated concentrations or saline containing Thimerosal at 0.02% were inoculated in triplicates with a suspension of each test organism to achieve an inoculum density of approximately 10^5 to 10^6 CFU/ml at time 0 (CFU=colony forming units). […] Samples were mixed to ensure even distribution of challenged organisms. Another 30 ml of vaccine in triplicate (with and without preservative) were used as a negative control and spiked with the culture media alone to evaluate the inherent contamination that might be present in the sample or media. Each of the three series of vaccines, and positive and negative controls, was then separately incubated at 20 to 25° C. Aliquots (1 ml) of the challenged samples and controls (or their appropriate serial ten fold dilutions) were enumerated by plate count in duplicates at time 0 and at intervals of 6 hours, 24 hours, 7 days, 14 days and 28 days post-inoculation.
(§5) USP 29 NF 24 Supplement 2 (USP) requires that, after an inoculation of bacterial micro-organism(s), there is at least 1.0 log reduction from the initial calculated count (i.e., at time of inoculation) at 7 days, at least 3.0 log reduction at 14 days from the previous value measured and no increase at 28 days from the previous measured value. For yeast and fungi, the USP requirement is for there to be no increase from the time of inoculation to 7, 14 and 28 days.
(§6) EP requirements are more stringent. EP 5th Edition 5.6 (5.1.3) requirements for parenteral and ophthalmic preparations has two components: Category A and Category B. Category A (EP-A) requires, for bacteria, at least 2.0 log reduction from the initial calculated count at 6 hours after inoculation, at least 3.0 log reduction at 24 hours from the previous measured value, and no recovery at 28 days. Category B (EP-B) requires, for bacteria, at least 1.0 log reduction at 24 hours from the initial calculated count, at least 3.0 log reduction at 7 days from the previous value measured and not more than 0.5 log increase at 28 days from the previous value measured (i.e., no increase). For yeast and fungi, Category A requires at least 2.0 log reduction at 7 days and no increase from the previous value measured at 28 days, and Category B requires at least 1.0 log reduction at 14 days and no increase from the previous value measured at 28 days.
(§7) Plates containing <300 CFU for bacteria or <100 CFU for yeast or mold were used during enumeration. For single challenge studies, arithmetic average count of all surviving micro-organisms in triplicate and on duplicate plates (6 values per time point) plus their diluted samples were measured and normalized as CFU/ml. The results are expressed as mean log10 CFU/ml reduction (compared to time 0). In this case, the count of surviving micro-organisms is evaluated at time 0 as the baseline and compared to incubation time of 6 hours, 24 hours, 7 days, 14 days and 28 days.

[2] = system: Pseudomonas aeruginosa (ATCC #9027); assay: Preservative effectiveness test, single challenge; type: cell-based; details: Prev(e)nar 13 formulation, 20 to 25° C.
Description: as §3, §4, §5, §6, §7

E. coli [3] = assay: Preservative effectiveness test, single challenge; type: cell-based; details: Prev(e)nar 13 formulation, 20 to 25° C.
Description: as §3, §4, §5, §6, §7

[4] = 2-PE concentration on storage (Reversed-Phase HPLC assay)
Experimental: 2-EP concentration may be measured with a Reversed-Phase HPLC assay, also as described in Example 3. A Reversed-Phase HPLC assay may be performed in the following manner: Samples are vortexed and diluted 1:10 into 5 mM Succinate buffer in saline, centrifuged and diluted again 1:10 into 5 mM succinate buffer in saline (final dilution of the Test Sample is 1:100). The sample is then assayed utilizing the Agilent Eclipse XDB-C18 HPLC column and a linear gradient of water and acetonitrile containing trifluoroacetic acid. The quantification of the preservative is then compared to a standard curve.
2-PE concentration was measured with a Reversed-Phase HPLC assay. Samples were vortexed and diluted 1:10 into 5 mM Succinate buffer in saline, centrifuged and diluted again 1:10 into 5 mM succinate buffer in saline. Final dilution of the Test Sample was 1:100. The assay utilized the Agilent Eclipse XDB-C18 HPLC column and a linear gradient of water and acetonitrile containing trifluoroacetic acid. 2-PE in 13vPnC Multi-Dose Vaccine samples was quantified against a 2-PE standard curve.

[5] = system: P. aeruginosa, S. aureus, E. coli and B. subtilis; assay: Preservative effectiveness test, multi-challenge method, all challenge organisms; type: cell-based
Experimental: as §1, §2

E. coli [6] = system: E. coli
Experimental: as §1
as §2, with “Formulations were spiked with 5×10^3 CFU/ml of each organism at times 0, 6 hours, 24 hours, 7 days and 14 days after initial challenge and stored either at 2-8° C. or at 22-24° C. to mimic the potential storage conditions in practice. Saline formulation containing 0.02% Thimerosal was also used as a control to evaluate the potential impact of Prev(e)nar 13 on the antimicrobial efficacy of Thimerosal in the formulation.” left out

[7] = 5 mg/dose 2-PE in Prev(e)nar 13, single challenge
[8] = Prev(e)nar 13 formulation, single challenge, 20 to 25° C.
[9] = 0.01% Thimerosal in Prev(e)nar 13, multiple challenges, particularly at 2-8° C.
[10] = 0.01% Thimerosal in Prev(e)nar 13, stored at 2-8° C.
[11] = 0.01% Thimerosal in Prev(e)nar 13, stored at 22-24° C.
[12] = 0.02% Thimerosal, multiple challenges
[13] = 0.02% Thimerosal in Prev(e)nar 13, 22-24° C. storage
[14] = 0.02% Thimerosal in saline control formulation without vaccine

## OCCOc1ccccc1 [2-PE, 2-phenoxyethanol]
S. aureus; 5 mg/dose of 2-PE in Prev(e)nar 13, single or multiple challenge, either storage temperature
  inactivation of S. aureus viability compared with Thimerosal: stronger
S. aureus; vaccine formulations with 2-PE, non-linear regression analysis
  rate of S. aureus decay (50% decay and average slope) compared with Thimerosal: faster
[1]; [7]
  effectiveness as a preservative against A. niger compared with Thimerosal: less effective
  rate of decline of A. niger contamination compared to Thimerosal: slower
[1]; [8]
  EP (EP-B) vaccine safety requirements, A. niger: Fails
  USP vaccine safety requirements, A. niger: Meets
[2]
  EP (EP-B) vaccine safety requirements, P. aeruginosa: Fails
  USP vaccine safety requirements, P. aeruginosa: Meets
E. coli [3]
  EP (EP-B) vaccine safety requirements, E. coli: Fails
  USP vaccine safety requirements, E. coli: Meets
[4]; Prev(e)nar 13 formulation stored at 2-8° C. (two and a half years)
  concentration of 2-PE in the formulation on storage: similarly stable; also recorded: did not change
[4]; Prev(e)nar 13 formulation stored at 37° C. (a month)
  concentration of 2-PE in the formulation on storage: similarly stable; also recorded: did not change
[5]; 5 mg/dose 2-PE in Prev(e)nar 13
  EP-B criteria under multiple challenge: met
[5]; 5 mg/dose 2-PE, multi-challenge method, regardless of storage temperature, all organisms tested
  preservative effectiveness compared with 0.01% Thimerosal: superior
[5]; 2-PE at 3.5 to 5 mg/dose
  rate of antimicrobial effectiveness compared to Thimerosal: much higher

## C[CH2][Hg][S]c1ccccc1C(=O)[O-].[Na+] [Thimerosal]
S. aureus; [9]
  reduction of S. aureus: slow
S. aureus; [10]
  rate of decay of S. aureus: −5.98 log10 decay per day
  time to 50% decay of S. aureus: 30.28 days
S. aureus; [11]
  rate of decay of S. aureus: −1.39 log10 decay per day
  time to 50% decay of S. aureus: 6.2 days
S. aureus; [12]
  rate of decay of S. aureus in saline formulation versus vaccine formulation: more pronounced
E. coli [6]; [9]
  reduction of E. coli: slow
E. coli [6]; [12]
  rate of decay of E. coli in saline formulation versus vaccine formulation: more pronounced
[5]; 0.01% Thimerosal in Prev(e)nar 13, multiple challenges
  antibacterial effectiveness by organism: highest on B. subtilis followed by P. aeruginosa
[5]; [13]
  EP requirements EP-A applied to multi-challenge studies: did not meet
  EP requirements EP-B applied to multi-challenge studies: did not meet
[5]; [14]
  acceptance criteria of EP-A when multiply challenged: did not meet
  acceptance criteria of EP-B when multiply challenged: did not meet
[5]; Thimerosal 0.02% versus 0.01%, multiple challenges
  preservative effectiveness, concentration dependence: more effective
[5]; Thimerosal in Prev(e)nar 13, particularly against S. aureus and E. coli
  rate of inactivation: slow
[5]; Thimerosal, any version tested
  EP-B criteria under multiple challenge: no version of Thimerosal was able to do so
[5]; Thimerosal, storage at 22-24° C. versus 2-8° C., multiple challenges
  preservative effectiveness, temperature dependence: more effective

From patent US9095567B2, “Vaccine formulations” (priority 2010, dated 2015)
